Experimental data taken from paper PMC9609429 (Pharmaceuticals, 2022).

Legend:
[1] = test system: adrenaline-induced arrhythmia in rats; settings: administered intravenously; cited from earlier work
α1-adrenoceptor = α1-adrenoceptor radioligand binding assay ([3H]-prazosin, rat cerebral cortex); settings: rat cortex tissue
Method: The α1-, α2-, and β1-adrenoceptor radioligand binding assay was carried out on the rat cerebral cortex. [^3H]-prazosin (19.5 Ci/mmol, α1-adrenoceptor), [^3H]-clonidine (70.5 Ci/mmol, α2-adrenoceptor), and [^3H]-CGP-12177 (48 Ci/mmol, β1-adrenergic receptor) were used as specific ligands. The brains were homogenized using ULTRA-TURRAX homogenizer in 10 mL of an ice-cold 50 mM Tris–HCl buffer (pH 7.6). Homogenates were centrifuged at 20,000× g for 20 min (0–4 °C). Next, the cell pellet was resuspended in the Tris–HCl buffer and centrifuged again. Radioligand binding assays were performed in plates (MultiScreen/Millipore). The final incubation mixture (volume 300 μL) consisted of 240 μL of the tissue suspension, 30 μL of radioligand solution, and 30 μL of the buffer containing 7–8 concentrations of the tested compound. […] The incubation was terminated by rapid filtration through Whatman GF/C filters using a vacuum manifold (Millipore). The filters were then washed twice with the assay buffer and placed in scintillation vials with a liquid scintillation cocktail. Radioactivity was measured in a WALLAC 1409 DSA liquid scintillation counter (Perkin Elmer, Waltham, MA, USA). All the assays were made in duplicates and the inhibitory constants (Ki) were estimated.

| Structure (SMILES) | ED50 (adrenaline-induced arrhythmia) [1] | Adrenergic Receptors—pKi α1 (α1-adrenoceptor) |
| --- | --- | --- |
| COc1ccccc1OCCNCC(O)COc1cccc2[nH]c3ccccc3c12 (centres unmarked) [carvedilol] | 0.36 mg/kg |  |
| Cc1ccc(N(CC2=NCCN2)c2cccc(O)c2)cc1 [Phentolamine, phentolamine, reference compound] |  | 8.04 |
